From US20200077648A1, “PHENOXYPHENYLAMIDINES AND THE USE THEREOF AS FUNGICIDES” (priority 2016, published 2020)

Experiments:
[1] = Log P measurement by HPLC on reversed phase columns (EEC directive 79/831 Annex V.A8; methods [a], [b], [c]); assay type: physicochemical
Experimental: If more than one Log P value is available within the same method, all the values are given and separated by “+”. […] Lambda-max-values were determined using UV-spectra from 200 nm to 400 nm and the peak values of the chromatographic signals.

[2] = tested on: soy bean plants; assay: Plant compatibility test using soy bean plants; assay type: in vivo; conditions: soy bean young plants sprayed, rate of application of active compound 500 ppm, evaluated 6 days after application; 0% = no damages, 100% = plants totally damaged
Experimental: Plant Compatibility Test Using Soy Bean Plants
Solvent: 24.5 parts by weight of acetone • 24.5 parts by weight of dimethylacetamide Emulsifier: 1 part by weight of alkylaryl polyglycol ether
To produce a suitable preparation of active compound, 1 part by weight of active compound is mixed with the stated amounts of solvent and emulsifier, and the concentrate is diluted with water to the desired concentration. Young plants are sprayed with the preparation of active compound at the stated application rate. The plants are then placed in a greenhouse at approximately 21° C. and a relative atmospheric humidity of approximately 80%. The test is evaluated 6 days after application and comprises plant damages like leaf deformation, chlorosis, necrosis, shoot damage or stunting. 0% means no damages are observed, while 100% means that the plants are totally damaged.

[3] = method [a]: LC-UV, acidic range, 0.1% formic acid in water and acetonitrile as eluent
[4] = method [b]: LC-UV, neutral range, 0.001 molar ammonium acetate solution in water and acetonitrile as eluent
[5] = method [a]: LC-UV, acidic range, 0.1% formic acid in water and acetonitrile as eluent (linear gradient 10% to 95% acetonitrile)

## CCN(C)C=Nc1cc(C)c(Oc2cccc(F)c2)cc1C [Example 2]
[1]; [3]
  LogP: 1.50^[a]
[2]
  Necrosis in %: 80%

## CCN(C)C=Nc1cc(C)c(Oc2cccc(F)c2)cc1Cl [Example 5]
[1]; [3]
  LogP: 1.58^[a]
[2]
  Necrosis in %: 10%

## Cc1cc(N=CN(C)C(C)C)c(Cl)cc1Oc1ccccc1F [Example 7]
[1]; [3]
  LogP: 1.80^[a]
[2]
  Necrosis in %: 10%

## CCN(C)C=Nc1cc(Cl)c(Oc2ccc(F)cc2)cc1C [Example 8]
[1]; [3]
  LogP: 1.55^[a]
[2]
  Necrosis in %: 0%

## CCN(C)C=Nc1cc(C)c(Oc2ccc(F)cc2)cc1Cl [Example 9]
[1]; [3]
  LogP: 1.47^[a]
[2]
  Necrosis in %: 5%

## CCN(C)C=Nc1cc(Cl)c(Oc2cccc(F)c2)cc1C [Example 12]
[1]; [3]
  LogP: 1.75^[a]
[2]
  Necrosis in %: 5%

## CCN(C)C=Nc1cc(C)c(Oc2ccccc2Cl)cc1C [Example 16]
[1]; [3]
  LogP: 1.86^[a]
[2]
  Necrosis in %: 30%

## CCN(C)C=Nc1cc(C)c(Oc2cccc(F)c2F)cc1C [Example 19]
[1]; [3]
  LogP: 1.49^[a]
[2]
  Necrosis in %: 60%

## CCN(C)C=Nc1cc(C)c(Oc2cccc(C)c2F)cc1C [Example 20]
[1]; [3]
  LogP: 1.69^[a]
[2]
  Necrosis in %: 80%

## CCN(C)C=Nc1cc(C(F)(F)F)c(Oc2ccccc2C#N)cc1C [Example 21]
[1]; [3]
  LogP: 1.46^[a]
[2]
  Necrosis in %: 20%

## CCN(C)C=Nc1cc(I)c(Oc2ccccc2)cc1C [Example 30]
[1]; [3]
  LogP: 1.69^[a];
[1]; [4]
  LogP: 5.01^[b]
[2]
  Necrosis in %: 50%

## CCN(C)C=Nc1cc(OC)c(Oc2ccccc2)cc1C [Example 31]
[1]; [3]
  LogP: 1.42^[a];
[1]; [4]
  LogP: 3.93^[b]
[2]
  Necrosis in %: 30%

## CCN(C)C=Nc1cc(Br)c(Oc2ccccc2)cc1C [Example 36]
[1]; [3]
  LogP: 1.58^[a];
[1]; [4]
  LogP: 4.79^[b]
[2]
  Necrosis in %: 40%

## CCN(C)C=Nc1cc(Br)c(Oc2ccccc2F)cc1C [Example 42]
[1]; [3]
  LogP: 1.55^[a]
[2]
  Necrosis in %: 20%

## CCN(C)C=Nc1cc(Cl)c(Oc2cccc(Cl)c2)cc1C [Example 48]
[1]; [3]
  LogP: 1.83^[a]
[2]
  Necrosis in %: 30%

## CCN(C)C=Nc1cc(I)c(Oc2ccccc2F)cc1C [Example 55]
[1]; [3]
  LogP: 1.58^[a]
[2]
  Necrosis in %: 10%

## CCN(C)C=Nc1cc(I)c(Oc2ccccc2C#N)cc1C [Example 56]
[1]; [3]
  LogP: 1.37^[a]
[2]
  Necrosis in %: 10%

## CCN(C)C=Nc1cc(F)c(Oc2ccccc2F)cc1C [Example 65]
[1]; [3]
  LogP: 1.34^[a]
[2]
  Necrosis in %: 20%

## Cc1cc(Oc2ccccc2F)c(C)cc1N=CN(C)C(C)C [Example 67]
[1]; [3]
  LogP: 1.68^[a]
[2]
  Necrosis in %: 40%

## Cc1cc(Oc2ccccc2C#N)c(C)cc1N=CN(C)C(C)C [Example 71]
[1]; [5]
  LogP: 1.48^[a]
[2]
  Necrosis in %: 5%

## CCN(C)C=Nc1cc(C)c(Oc2cccc(F)c2C#N)cc1Cl [Example 88]
[1]; [5]
  LogP: 1.35^[a]
[2]
  Necrosis in %: 20%

## CCN(C)C=Nc1cc(C)c(Oc2ccccc2C(=O)N(C)C)cc1Cl [Example 91]
[1]; [5]
  LogP: 0.97^[a]

## CCN(C)C=Nc1cc(C)c(Oc2ccccc2C#N)cc1Br [Example 92]
[1]; [5]
  LogP: 1.27^[a]

## CCN(C)C=Nc1cc(C)c(Oc2cc(F)ccc2C#N)cc1Cl [Example 93]
[1]; [5]
  LogP: 1.27^[a]
[2]
  Necrosis in %: 10%

## CCN(C)C=Nc1cc(C)c(Oc2ccccc2C2CC2)cc1Br [Example 94]
[1]; [5]
  LogP: 1.84^[a]

## CCN(C)C=Nc1cc(C)c(Oc2cccc(F)c2C)cc1Br [Example 95]
[1]; [5]
  LogP: 1.75^[a]

## C=C(C)c1cc(Oc2ccccc2)c(C)cc1N=CN(C)CC [Example 96]
[1]; [5]
  LogP: 1.63^[a]

## C=C(C)c1cc(Oc2ccccc2F)c(C)cc1N=CN(C)CC [Example 97]
[1]; [5]
  LogP: 1.66^[a]

## CCN(C)C=Nc1cc(C)c(Oc2ccccc2C(C)C)cc1Br [Example 98]
[1]; [5]
  LogP: 2.26^[a]

## CCN(C)C=Nc1cc(C)c(Oc2ccccc2I)cc1Br [Example 99]
[1]; [5]
  LogP: 2.03^[a]

## CCN(C)C=Nc1cc(C)c(Oc2ccccc2N(C)C)cc1Br [Example 100]
[1]; [5]
  LogP: 1.07^[a]

## CCN(C)C=Nc1cc(C)c(Oc2ccccc2[S+](C)[O-])cc1Br (stereo not drawn) [Example 101]
[1]; [5]
  LogP: 1.02^[a]

## CCN(C)C=Nc1cc(C(F)F)c(Oc2ccccc2C#N)cc1C [Example 102]
[1]; [5]
  LogP: 1.18^[a]
[2]
  Necrosis in %: 0%

## CCN(C)C=Nc1cc(C)c(Oc2ccccc2SC)cc1Br [Example 103]
[1]; [5]
  LogP: 1.82^[a]

## CCN(C)C=Nc1cc(C)c(Oc2cccc(F)c2C#N)cc1Br [Example 104]
[1]; [5]
  LogP: 1.58^[a]

## CCN(C)C=Nc1cc(C(F)F)c(Oc2ccccc2F)cc1C [Example 105]
[1]; [5]
  LogP: 1.46^[a]
[2]
  Necrosis in %: 0%

## CCc1cc(N=CN(C)CC)c(C)cc1Oc1ccccc1F [Example 106]
[1]; [5]
  LogP: 1.69^[a]
[2]
  Necrosis in %: 30%

## CCN(C)C=Nc1cc(C(C)C)c(Oc2ccccc2C#N)cc1C [Example 107]
[1]; [5]
  LogP: 1.75^[a]
[2]
  Necrosis in %: 0%

## CCc1cc(N=CN(C)CC)c(C)cc1Oc1ccccc1C#N [Example 108]
[1]; [5]
  LogP: 1.59^[a]

## C=C(C)c1cc(N=CN(C)CC)c(C)cc1Oc1ccccc1C#N [Example 109]
[1]; [5]
  LogP: 1.60^[a]

## CCN(C)C=Nc1cc(C)c(Oc2ccccc2F)cc1C1CC1 [Example 110]
[1]; [5]
  LogP: 1.83^[a]

## C#Cc1cc(Oc2ccccc2)c(C)cc1N=CN(C)CC [Example 111]
[1]; [5]
  LogP: 1.44^[a]

## C#Cc1cc(Oc2ccccc2F)c(C)cc1N=CN(C)CC [Example 112]
[1]; [5]
  LogP: 1.44^[a]

## CCN(C)C=Nc1cc(C)c(Oc2ccccc2)cc1C1CC1 [Example 113]
[1]; [5]
  LogP: 1.58^[a]

## CCN(C)C=Nc1cc(C)c(Oc2ccccc2C(F)(F)F)cc1C [Example 114]
[1]; [5]
  LogP: 1.69^[a]
[2]
  Necrosis in %: 5%

## CCN(C)C=Nc1cc(C)c(Oc2ccccc2SC)cc1C [Example 115]
[1]; [5]
  LogP: 1.55^[a]

## CCN(C)C=Nc1cc(C)c(Oc2ccccc2[S+](C)[O-])cc1C (stereo not drawn) [Example 116]
[1]; [5]
  LogP: 0.94^[a]

## CCN(C)C=Nc1cc(C)c(Oc2ccccc2F)cc1C(=O)N(C)C [Example 117]
[1]; [5]
  LogP: 1.24^[a]

## C=C(C)c1cc(N=CN(C)CC)c(C)cc1Oc1ccccc1F [Example 118]
[1]; [5]
  LogP: 1.60^[a]
[2]
  Necrosis in %: 5%

## CCN(C)C=Nc1cc(C2CC2)c(Oc2ccccc2C#N)cc1C [Example 119]
[1]; [5]
  LogP: 1.38^[a]

## CCN(C)C=Nc1cc(C2CC2)c(Oc2ccccc2F)cc1C [Example 120]
[1]; [5]
  LogP: 1.60^[a]
[2]
  Necrosis in %: 0%

## CCN(C)C=Nc1cc(C(C)C)c(Oc2ccccc2F)cc1C [Example 121]
[1]; [5]
  LogP: 1.75^[a]

## CCN(C)C=Nc1cc(C)c(Oc2ccccc2S(C)(=O)=O)cc1C [Example 122]
[1]; [5]
  LogP: 0.91^[a]

## CCN(C)C=Nc1cc(C)c(Oc2ccccc2S(C)(=O)=O)cc1Br [Example 123]
[1]; [5]
  LogP: 0.94^[a]

## Cc1cc(Oc2ccccc2C#N)c(I)cc1N=CN(C)C(C)C [Example 426]
[1]; [5]
  LogP: 1.41^[a]
